Data from PMC5552351, “Bacteriological profiling of diphenylureas as a novel class of antibiotics against methicillin-resistant Staphylococcus aureus” (PLoS ONE, 2017).
Values after ≈ are worked out from the molar mass of the structure shown.

Experiments:
Bacillus subtilis = experiment: Bacterial Cytological Profiling (BCP); format: cell-based; conditions: two hours, LB-MSM osmotically buffered media, 37 °C
Protocol: B. subtilis cells were grown in Luria Bertani (LB) medium at 37 °C until the optical density at 600 nm (OD600) was ~0.20. Cells were then left untreated or treated with compound 1 or control antibiotics in the presence of methylsulfonylmethane (MSM), as described previously. After two hours, cells were stained with FM 4−64 (1 μg/mL) to visualize cell membranes; DAPI (1 μg/ml) to visualize DNA, and SYTOX Green (1 μg/mL), a vital stain which is normally excluded from cells with an intact membrane but brightly stains cells that are lysed. Images were collected using a Delta Vision Spectris Deconvolution microscope, as described previously.

MRSA USA400 (NRS123) [1] = experiment: MIC in presence and absence of human serum albumin; format: cell-based, Staphylococcus aureus; conditions: for MIC: Staphylococcus aureus, TSB
Protocol: The broth microdilution assay presented above was used to assess if compounds 1 and 2 bind to a major component of blood (human serum albumin) thus limiting the free fraction of drug available to exert its antibacterial effect. […] CaCl2 ([…]) was added to wells containing daptomycin, per the CLSI guidelines.

MRSA USA400 (NRS123) [2] = experiment: multi-step resistance selection; format: cell-based, Staphylococcus aureus; conditions: for increase in MIC after fourteen passages: fourteen passages over two weeks; for MIC: Staphylococcus aureus, read-out: initial MIC
Protocol: To assess MRSA’s ability to develop resistance to the diphenylurea compounds after repeated exposure, a multi-step resistance selection experiment was conducted. […] Resistance was classified as a greater than four-fold increase in the initial MIC, as reported elsewhere.

MRSA NRS123 (USA400) = experiment: broth microdilution MIC/MBC; format: cell-based; conditions: Staphylococcus aureus
Protocol: (§1) The broth microdilution assay was employed to determine the MIC of compounds 1, 2, and vancomycin against five MRSA strains, four VRSA strains, one highly mupirocin-resistant S. aureus strain, one biofilm-forming S. aureus (ATCC 6538) strain, and one biofilm-forming methicillin-resistant S. epidermidis strain, as per the guidelines of the Clinical and Laboratory Standards Institute (CLSI). […] The MBC was determined by plating an aliquot (5 μL) from wells with no growth onto TSA plates. Plates were incubated at 37 °C for 19 hours before recording the MBC (concentration where no growth was observed on TSA plates).

MRSA NRS384 (USA300) = experiment: broth microdilution MIC/MBC; format: cell-based; conditions: Staphylococcus aureus
Protocol: as §1

MRSA NRS387 (USA800) = experiment: broth microdilution MIC/MBC; format: cell-based; conditions: Staphylococcus aureus
Protocol: as §1

MRSA NRS483 (USA1000) = experiment: broth microdilution MIC/MBC; format: cell-based; conditions: Staphylococcus aureus
Protocol: as §1

MRSA NRS484 (USA1100) = experiment: broth microdilution MIC/MBC; format: cell-based; conditions: Staphylococcus aureus
Protocol: as §1

S. aureus NRS107 = experiment: broth microdilution MIC/MBC; format: cell-based; conditions: Staphylococcus aureus, NRS107
Protocol: as §1

VRS10 [3] = experiment: broth microdilution MIC/MBC; format: cell-based; conditions: Staphylococcus aureus
Protocol: as §1

VRS11a = experiment: broth microdilution MIC/MBC; format: cell-based; conditions: Staphylococcus aureus
Protocol: as §1

VRS4 [4] = experiment: broth microdilution MIC/MBC; format: cell-based; conditions: Staphylococcus aureus
Protocol: as §1

VRS7 = experiment: broth microdilution MIC/MBC; format: cell-based; conditions: Staphylococcus aureus
Protocol: as §1

S. aureus ATCC 6538 = experiment: broth microdilution MIC; format: cell-based; conditions: Staphylococcus aureus, ATCC6538
Protocol: as §1

S. epidermidis NRS101 = experiment: broth microdilution MIC; format: cell-based; conditions: Staphylococcus epidermidis, NRS101
Protocol: as §1

[5] = test system: clinically-relevant strains of MRSA and VRSA; experiment: broth microdilution MIC/MBC, panel summary; format: cell-based; conditions: Staphylococcus aureus, read-out: concentration inhibiting growth of MRSA isolates (MIC)
Protocol: as §1

MRSA USA300 (NRS384) = experiment: time-kill assay; format: cell-based, Staphylococcus aureus; conditions: 4 × MIC
[6] = test system: S. aureus NRS107 (RN4220); experiment: accumulation of UDP-N-acetylmuramyl pentapeptide (HPLC-MS); format: cell-based, Staphylococcus aureus; conditions: 10 × MIC, 30 minutes
Protocol: The accumulation of UDP-N-acetylmuramyl pentapeptide was detected using a procedure described in a previous study, with the following modifications. S. aureus NRS107 (RN4220), in early logarithmic growth stage (OD600 ~ 0.60), was incubated with 130 μg/mL chloramphenicol for 15 minutes at 37°C. […] Untreated samples served as a negative control. Samples were centrifuged at 10,000 rpm for five minutes, the supernatant discarded, and the pellet re-suspended in sterile deionzined water (1 mL). The pellet was boiled at […] for 30 minutes before samples were chilled on ice for 10 minutes. UDP-N-acetylmuramyl-pentapeptide was measured using an Agilent High Performance Liquid Chromatography coupled to a time-of-flight Mass Spectrometer (HPLC-MS). A Waters XBridge Phenyl (2.1 × 100 mm, 3.5 μm) chromatography column was used, with mobile phases of water, 0.1% formic acid (Buffer A) and acetonitrile, 0.1% formic acid (Buffer B). A gradient of 5–20% Buffer B over 14 minutes was used, with a flow rate of 0.3 mL/min. An electrospray source was used, in positive ionization mode. Extracted Ion Chromatograms (EIC) were generated at a mass-to-charge ratio (m/z) of 1150.3588 (20 ppm window). Mass error for UDP-N-acetylmuramyl-pentapeptide was <1 ppm.

VRS10 [7] = experiment: microbe, parasite or virus in culture; format: cell-based, Staphylococcus aureus; conditions: Staphylococcus aureus, read-out: MIC of vancomycin
Protocol: (§2) CAMHB was inoculated with strain VRS4 or strain VRS10 (5×10^5 CFU/mL), as described previously, with the following modifications. Aliquots ([…]) of the bacterial suspension were divided into micro-centrifuge tubes and compounds 1 or 2 (at ½ × MIC) were introduced into each tube. After 30 minutes of incubation at room temperature, samples from each tube were transferred to a new micro-centrifuge tube, prior to addition of vancomycin (at 128 μg/mL). Plates containing the test agents and bacteria were then incubated at 37 °C for 20–22 hours after which the MIC value was determined. A fold-reduction was calculated by comparing the MIC of vancomycin compared to the MIC of vancomycin given in combination with compounds 1 or 2 (at ½ × MIC).

VRS4 [8] = experiment: microbe, parasite or virus in culture; format: cell-based, Staphylococcus aureus; conditions: Staphylococcus aureus, read-out: MIC of vancomycin
Protocol: as §2

[9] = test system: S. epidermidis NRS101 biofilm; experiment: bacterial CFU inside mature biofilm post-treatment; format: cell-based, Staphylococcus epidermidis; conditions: 24 hours
Protocol: (§3) Compounds 1, 2, and vancomycin were examined for their ability to eradicate mature staphylococcal biofilm using the microtiter dish biofilm formation assay. S. epidermidis NRS101 and S. aureus ATCC 6538 were selected as the test organisms given their ability to form strong adherent biofilm. An overnight culture of bacteria was diluted (1:100 in TSB + 1% glucose) and transferred to a 96-well plate. The plate was incubated for 24 hours at 37 °C in order to form adherent biofilm on the surface of the plate wells. The medium containing the bacterial suspension was removed and the biofilm was washed with sterile PBS to remove planktonic cells. Compounds 1, 2, or vancomycin (from 128 to 1 μg/mL), in triplicate, in TSB were incubated with the biofilm for 24 hours at 37 °C.
(§4) For enumeration of viable CFU inside the biofilm, compounds were removed, wells were washed with sterile PBS, and treated with 0.25% Trypsin-2.21 mM EDTA solution as described elsewhere. The solution containing cells was transferred to a 96-well plate, serially diluted in PBS, and plated on TSA. Plates were incubated at 37 °C for 19 hours before viable CFU were counted. Data are presented as average log10(CFU/mL) of bacteria present in the biofilm post-treatment.

[10] = test system: S. epidermidis NRS101 biofilm; experiment: biofilm mass disruption, crystal violet reporter assay; format: cell-based, Staphylococcus epidermidis; conditions: 24-hour treatment
Protocol: as §3
(§5) Compounds were subsequently removed. The biofilm was washed with PBS and then stained with 1% (w/v) crystal violet for 40 minutes. The stain was removed and wells were washed with sterile PBS. Wells were next decolorized using 95% ethanol. The optical density of each well at 595 nm was measured using a microplate reader.

[11] = test system: S. aureus ATCC 6538 biofilm; experiment: bacterial CFU inside mature biofilm post-treatment; format: cell-based, Staphylococcus aureus; conditions: 64 μg/mL, 24 hours
Protocol: as §3, §4

[12] = test system: S. aureus ATCC 6538 biofilm; experiment: biofilm mass disruption, crystal violet reporter assay; format: cell-based, Staphylococcus aureus; conditions: all concentrations tested
Protocol: as §3, §5

[13] = 4% human serum albumin, read-out: MIC vs. MRSA USA400 (+HSA)
[14] = without human serum albumin, read-out: MIC vs. MRSA USA400 (-HSA)

Molecule: N[C@@H]1CON=C1O [D-cycloserine]
- cytological profile (cell morphology) (Bacillus subtilis): bulges and misshapen cells

Molecule: CCCCCCCCCC(=O)N[C@@H](Cc1c[nH]c2ccccc12)C(=O)N[C@H](CC(N)=O)C(=O)N[C@@H](CC(=O)O)C(=O)N[C@@H]1C(=O)NCC(=O)N[C@@H](CCCN)C(=O)N[C@@H](CC(=O)O)C(=O)N[C@H](C)C(=O)N[C@@H](CC(=O)O)C(=O)NCC(=O)N[C@H](CO)C(=O)N[C@@H]([C@H](C)CC(=O)O)C(=O)N[C@@H](CC(=O)c2ccccc2N)C(=O)O[C@@H]1C [Daptomycin, daptomycin, reference compound]
- MIC (MRSA USA400 (NRS123) [1]; [13]): 64 µg/mL (≈ 39.5 µM)
- MIC (MRSA USA400 (NRS123) [1]; [14]): 2 µg/mL (≈ 1.23 µM)

Molecule: CC(=O)NC[C@H]1CN(c2ccc(N3CCOCC3)c(F)c2)C(=O)O1 [Linezolid, linezolid, reference compound]
- increase in MIC after fourteen passages (MRSA USA400 (NRS123) [2]; MRSA USA400 (NRS123)): one-fold
- MIC (MRSA USA400 (NRS123) [2]): 2 µg/mL (≈ 5.93 µM)
- increase in MIC in the presence of HSA (MRSA USA400 (NRS123) [1]; MRSA USA400, 4% human serum albumin vs none): remained unchanged
- MIC (MRSA USA400 (NRS123) [1]; [13]): 1 µg/mL (≈ 2.96 µM)
- MIC (MRSA USA400 (NRS123) [1]; [14]): 1 µg/mL (≈ 2.96 µM)

Molecule: CN[C@H](CC(C)C)C(=O)N[C@H]1C(=O)N[C@@H](CC(N)=O)C(=O)N[C@H]2C(=O)N[C@H]3C(=O)N[C@H](C(=O)N[C@H](C(=O)O)c4cc(O)cc(O)c4-c4cc3ccc4O)[C@H](O)c3ccc(c(Cl)c3)Oc3cc2cc(c3O[C@@H]2O[C@H](CO)[C@@H](O)[C@H](O)[C@H]2O[C@H]2C[C@](C)(N)[C@H](O)[C@H](C)O2)Oc2ccc(cc2Cl)[C@H]1O [Vancomycin, vancomycin, reference compound]
- MBC (MRSA NRS123 (USA400)): 1 µg/mL (≈ 0.69 µM)
- MIC (MRSA NRS123 (USA400)): 1 µg/mL (≈ 0.69 µM)
- MBC (MRSA NRS384 (USA300)): 0.5 µg/mL (≈ 0.345 µM)
- MIC (MRSA NRS384 (USA300)): 0.5 µg/mL (≈ 0.345 µM)
- MBC (MRSA NRS387 (USA800)): 1 µg/mL (≈ 0.69 µM)
- MIC (MRSA NRS387 (USA800)): 0.5 µg/mL (≈ 0.345 µM)
- MBC (MRSA NRS483 (USA1000)): 1 µg/mL (≈ 0.69 µM)
- MIC (MRSA NRS483 (USA1000)): 1 µg/mL (≈ 0.69 µM)
- MBC (MRSA NRS484 (USA1100)): 2 µg/mL (≈ 1.38 µM)
- MIC (MRSA NRS484 (USA1100)): 1 µg/mL (≈ 0.69 µM)
- MBC (S. aureus NRS107): 2 µg/mL (≈ 1.38 µM)
- MIC (S. aureus NRS107): 1 µg/mL (≈ 0.69 µM)
- MBC (VRS10 [3]): > 64 µg/mL
- MIC (VRS10 [3]): > 64 µg/mL
- MBC (VRS11a): > 64 µg/mL
- MIC (VRS11a): > 64 µg/mL
- MBC (VRS4 [4]): > 64 µg/mL
- MIC (VRS4 [4]): 64 µg/mL (≈ 44.2 µM)
- MBC (VRS7): > 64 µg/mL
- MIC (VRS7): 64 µg/mL (≈ 44.2 µM)
- MIC (S. aureus ATCC 6538): 0.5 µg/mL (≈ 0.345 µM)
- MIC (S. epidermidis NRS101): 1 µg/mL (≈ 0.69 µM)
- MIC [5]: 0.5 to 1 µg/mL (≈ 0.345 to 0.69 µM)
- time to completely eradicate a high inoculum of MRSA (~10^6 CFU/mL) (MRSA USA300 (NRS384)): 24 hours
- UDP-N-acetylmuramyl pentapeptide accumulation [6]: notable increase
- MIC (VRS10 [7]): 512 µg/mL
- MIC (VRS4 [8]): 512 µg/mL
- reduction in bacterial CFU within S. epidermidis biofilm ([9]; 64 μg/mL): 1.4 log10
- reduction in bacterial CFU within S. epidermidis biofilm ([9]; 128 μg/mL): 3.14 log10
- S. epidermidis biofilm mass, OD595 ([10]; 128 μg/mL, untreated control OD595 = 4.00): 3.80
- reduction in S. epidermidis biofilm mass ([10]; 8 to 64 μg/mL, vs untreated control): no significant reduction
- reduction in bacterial CFU within S. aureus biofilm [11]: 1.0 log10
- change in optical density of S. aureus biofilm (biofilm mass) [12]: no change

Molecule: O=C(O)c1cn(C2CC2)c2cc(N3CCNCC3)c(F)cc2c1=O [ciprofloxacin]
- increase in MIC after fourteen passages (MRSA USA400 (NRS123) [2]; MRSA USA400 (NRS123)): seven-fold
- increase in MIC after seven passages (MRSA USA400 (NRS123) [2]; MRSA USA400 (NRS123), seven passages): three-fold
- MIC (MRSA USA400 (NRS123) [2]): 1 µg/mL (≈ 3.02 µM)

Molecule: Cc1onc(-c2ccccc2Cl)c1C(=O)N[C@@H]1C(=O)N2[C@@H]1SC(C)(C)[C@@H]2C(=O)O [cloxacillin]
- cytological profile (cell morphology) (Bacillus subtilis): bulges at the poles of the cells

Molecule: Cc1onc(-c2ccccc2)c1C(=O)N[C@@H]1C(=O)N2[C@@H]1SC(C)(C)[C@@H]2C(=O)O [oxacillin]
- cytological profile (cell morphology) (Bacillus subtilis): bulges and misshapen cells

Molecule: ramoplanin
- cytological profile (cell morphology) (Bacillus subtilis): bulges and misshapen cells
